Test results reported in patent US20250257075A1, “MACROCYCLIC INHIBITORS OF KRAS FOR THE TREATMENT OF CANCER” (Hoffmann-La Roche Inc., priority 2022, published 2025).

Experiments:
[1] = test system: NCI-H358 cells (KRAS G12C); test: Cell viability assay, G12C; assay type: cell-based, human; details: Homo sapiens; NCI-H358, 72 hrs, Cell Counting Kit-8
Description: (§1) The purpose of this cellular assay was to determine the effects of test compounds on the proliferation of human cancer cell lines NCI-H358 (ATCC-CRL5807) cells, AGS (ATCC-CRL-1739) cells, SW620 (ATCC-CCL-227) over a 3-day treatment period by quantifying the amount of NADPH present at endpoint using Cell Counting Kit-8.
(§2) Cells were seeded at 5,000 cells/well (NCI-H358), 2,000 cells/well (AGS) 2,000 cells/well (SW620) in 96-well assay plates (Corning-3699) and incubated overnight. On the day of the assay, diluted compounds were then added in a final concentration of 0.5% DMSO. After 72 hrs incubation, a tenth of the volume of cell counting kit 8 (Dnjindo-CK04) was added into each well. Read the signal (OD450 minus OD650) using EnVision after 2 hrs incubation. IC50 was determined by fitting a 4-parameter sigmoidal concentration response model.

[2] = test system: AGS cells (KRAS G12D); test: Cell viability assay, G12D; assay type: cell-based, human; details: Homo sapiens, 72 hrs, Cell Counting Kit-8
Description: as §1, §2

[3] = test system: SW620 cells (KRAS G12V); test: Cell viability assay, G12V; assay type: cell-based, human; details: Homo sapiens, SW-620; SW620, 72 hrs, Cell Counting Kit-8
Description: as §1, §2

[4] = target: T1, KRAS G12C-BRAF complex (Homo sapiens, UniProt P01116+P62937, G12C); test: KRAS G12C-BRAF NanoBit assay in HEK293 cells; assay type: cell-based; details: HEK293 stable cell pool, 3 hours of incubation
T1 construct: expressed in transfected cells
Description: This assay is to measure the ability of tested compounds in disruption of the KRAS G12C-BRAF complex at the cellular level, we established the NanoBit cellular assay in mammalian HEK293 (ATCC) cells. HEK293 cells were grown and maintained using DMEM medium (Thermo Fisher Scientific) with 10% fetal bovine serum and 1% penicillin/streptomycin. Both KRAS G12C and BRAF RBD were cloned into the NanoBit vectors ([…] vectors system, Promega) with the orientations SmBit-KRAS G12C and BRAF RBD-LgBit, respectively, and co-transfected into HEK293 cells. Cells were then selected with 100 μg/mL Hygromycin B (10687010, Thermo Fisher) and Blasticidin (5 μg/mL) for 4 weeks to get the stable cell pool. On the day of the assay, 75 nL of compound solution was presented in a 384-well assay plate as a 16-point 3-fold dilution starting from a final concentration of 30 μM in DMSO. Then cells were seeded at 10,000 cells/25 μL/well in a 384-well plate. After 3 hours of incubation, 6 μL of volume of Nano-Glo® Live Cell Substrate (Promega) was added into each well. Monitor luminescence using ultra384 model in Envision at 20 minutes. Compounds that facilitate disruption of the KRAS G12C-BRAF RBD complex were identified as those eliciting a decrease of luminescence relative to DMSO control wells.

[5] = target: T1, KRAS G12C-BRAF complex; test: KRAS-BRAF with CYPA (500 nM) interaction assay (TR-FRET), G12C; assay type: biochemical; details: 3 hours
Description: (§3) Kras-BRAF with CYPA (500 nM) Interaction Assay In this example, TR-FRET was also used to measure the compound or compound-CYPA dependent disruption of the KRAS G12C-BRAF complex. This protocol was also used to measure disruption of KRAS G12D or KRAS G12V binding to BRAF by a compound of the invention, respectively. […] TR-FRET signal was read on a […] microplate reader (Ex320 nm, Em 665/615 nm). Compounds that facilitate disruption of the KRAS-BRAF complex were identified as those eliciting a decrease in the TR-FRET ratio relative to DMSO control wells.

[6] = target: KRAS G12D binding to BRAF (Homo sapiens, UniProt P01116+P62937, G12D); test: KRAS-BRAF with CYPA (500 nM) interaction assay (TR-FRET), G12D; assay type: biochemical; details: 3 hours
Description: as §3

[7] = target: KRAS G12V binding to BRAF (Homo sapiens, UniProt P01116+P62937, G12V); test: KRAS-BRAF with CYPA (500 nM) interaction assay (TR-FRET), G12V; assay type: biochemical; details: 3 hours
Description: as §3

[8] = test system: phosphorylation of ERK, KRAS G12C in NCI-H358 cells; test: pERK inhibition assay, G12C; assay type: cell-based, human; details: Homo sapiens; NCI-H358, 4 hours of incubation
Description: (§4) This assay is to measure the ability of test compounds in inhibiting the phosphorylation of ERK, the downstream signaling of KRAS G12C in NCI-H358 cells, KRAS G12D in AGS cells, and KRAS G12V in SW620. NCI-H358 (ATCC-CRL5807) cells, AGS (ATCC-CRL-1739) cells, SW620 (ATCC-CCL-227) cells were all grown and maintained using RPMI-1640 medium (Thermo Fisher Scientific) with 10% fetal bovine serum and 1% penicillin/streptomycin. On the day prior to compound addition, cells were plated in tissue culture-treated 96 well plates (Corning-3699) at a density of 30,000 cell/well, 20,000 cell/well, 30,000 cell/well for NCI-H358, AGS and SW620 respectively, and allowed for attachment overnight. Diluted compounds were then added in a final concentration of 0.5% DMSO. After 4 hours of incubation, the medium was removed, 100 μL of 4% formaldehyde was added, and the assay plates were incubated at room temperature for 20 minutes. The plates were then washed once with phosphate buffered saline (PBS), and permeabilized with 100 μL of chilled methanol for 10 minutes. Non-specific antibody binding to the plates was blocked using 50 μL 1×BSA blocking buffer (Thermo-37520, 10-fold dilution by Phosphate-Buffered Saline Tween (PBST) for at least 1 hour at room temperature.
(§5) The amount of phosphor-ERK was determined using an antibody specific for phosphorylated form of ERK. Primary antibody (pERK, CST-4370, Cell Signaling Technology) was diluted 1:300 in blocking buffer, with 50 μL aliquoted to each well, and incubated overnight at 4° C. Cells was washed five times for 5 minutes with PBST. Secondary antibody (HRP-linked anti-rabbit IgG, CST-7074, Cell Signaling Technology) was diluted 1:1000 in blocking buffer, and 50 μL was added to each well and incubated 1-2 hrs at room temperature. Cells was washed 5 times for 5 minutes with PBST, 100 μL TMB ELISA substrate (abcam-ab171523) were added and gently shake for 20 minutes. 50 μL stop solution (abcam-ab171529) were added, and then read the signal (OD450) by EnVision.
(§6) IC50 was determined by fitting a 4-parameter sigmoidal concentration response model.

[9] = test system: phosphorylation of ERK, KRAS G12D in AGS cells; test: pERK inhibition assay, G12D; assay type: cell-based, human; details: Homo sapiens, 4 hours of incubation
Description: as §4, §5, §6

[10] = test system: phosphorylation of ERK, KRAS G12V in SW620; test: pERK inhibition assay, G12V; assay type: cell-based, human; details: Homo sapiens, SW-620; SW620, 4 hours of incubation
Description: as §4, §5, §6

Sequence of KRAS G12V binding to BRAF (P01116 1-188 isoform P01116-2 G12V): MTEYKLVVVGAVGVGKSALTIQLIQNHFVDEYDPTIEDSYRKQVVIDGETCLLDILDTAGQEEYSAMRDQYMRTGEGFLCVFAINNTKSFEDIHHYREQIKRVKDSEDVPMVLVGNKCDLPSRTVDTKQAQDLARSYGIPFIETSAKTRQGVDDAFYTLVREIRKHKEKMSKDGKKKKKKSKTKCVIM
Sequence of KRAS G12V binding to BRAF (P62937 whole entry): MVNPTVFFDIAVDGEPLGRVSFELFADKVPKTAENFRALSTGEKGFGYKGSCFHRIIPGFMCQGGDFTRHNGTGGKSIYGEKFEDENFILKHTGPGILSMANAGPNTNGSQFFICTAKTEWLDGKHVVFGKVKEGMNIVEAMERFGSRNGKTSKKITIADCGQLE
Sequence of KRAS G12D binding to BRAF (P01116 1-188 isoform P01116-2 G12D): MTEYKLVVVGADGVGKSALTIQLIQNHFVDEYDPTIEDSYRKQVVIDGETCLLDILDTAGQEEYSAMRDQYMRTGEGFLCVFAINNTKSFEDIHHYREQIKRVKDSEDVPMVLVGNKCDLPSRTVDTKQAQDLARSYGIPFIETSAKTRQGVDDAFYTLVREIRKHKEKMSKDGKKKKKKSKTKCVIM
Sequence of KRAS G12D binding to BRAF (P62937 whole entry): as the sequence (P62937 whole entry) above
T1 sequence (P01116 1-188 isoform P01116-2 G12C): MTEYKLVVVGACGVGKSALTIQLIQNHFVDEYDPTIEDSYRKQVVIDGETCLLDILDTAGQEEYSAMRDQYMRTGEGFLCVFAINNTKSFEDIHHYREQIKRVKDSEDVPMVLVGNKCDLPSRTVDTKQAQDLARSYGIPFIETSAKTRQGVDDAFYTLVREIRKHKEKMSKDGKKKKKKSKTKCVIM
T1 sequence (P62937 whole entry): as the sequence (P62937 whole entry) above

Row | IC50 [1] [µM] | IC50 [2] [µM] | IC50 [3] [µM] | IC50 [4] [µM] | IC50 [5] [µM] | IC50 [6] [µM] | IC50 [7] [µM] | IC50 [8] [µM] | IC50 [9] [µM] | IC50 [10] [µM] | SMILES
1 | 0.027 | > 10 | 0.04 | 0.081 | 3.35 | > 10 | > 10 | 0.035 | 1.1 | 0.063 | CO[C@@H](C)c1ncc(N2CCN(C)CC2)cc1-c1c2c3cc(c(F)cc3n1CC(F)(F)F)-c1csc(n1)C[C@H](NC(=O)[C@H](C(C)C)N(C)C(=O)[C@H]1C[C@H](C#CC(F)(F)F)C1)C(=O)N1CCC[C@H](N1)C(=O)OCC(C)(C)C2 (atropisomer, axis not shown; (M)) [Example 1, trans-N-[(1S)-1-[[(7S,13S)-24-fluoro-(20M)-20-[2-[(1S)-1-methoxyethyl]-5-(4-methylpiperazin-1-yl)-3-pyridyl]-17,17-dimethyl-8,14-dioxo-21-(2,2,2-trifluoroethyl)-15-oxa-4-thia-9,21,27,28-tetrazapentacyclo[17.5.2.1^2,5.1^9,13.0^22,26]octacosa-1(25),2,5(28),19,22(26),23-hexaen-7-yl]carbamoyl]-2-methyl-propyl]-N-methyl-3-(3,3,3-trifluoroprop-1-ynyl)cyclobutanecarboxamide]
2 | 0.033 | 3.1 | 0.36 | 0.067 | 0.063 | 1.47 | 0.484 | 0.092 | 0.667 | 0.201 | CO[C@@H](C)c1ncc(N2CCN(C)CC2)cc1-c1c2c3c(F)c(ccc3n1CC(F)(F)F)-c1csc(n1)C[C@H](NC(=O)[C@H](C(C)C)N(C)C(=O)[C@H]1C[C@@H](C#CC(F)(F)F)C1)C(=O)N1CCC[C@H](N1)C(=O)OCC(C)(C)C2 (atropisomer, axis not shown; (M)) [Example 12, cis-N-[(1S)-1-[[(7S,13S)-25-fluoro-(20M)-20-[2-[(1S)-1-methoxyethyl]-5-(4-methylpiperazin-1-yl)-3-pyridyl]-17,17-dimethyl-8,14-dioxo-21-(2,2,2-trifluoroethyl)-15-oxa-4-thia-9,21,27,28-tetrazapentacyclo[17.5.2.1^2,5.1^9,13.0^22,26]octacosa-1(25),2,5(28),19,22(26),23-hexaen-7-yl]carbamoyl]-2-methyl-propyl]-N-methyl-3-(3,3,3-trifluoroprop-1-ynyl)cyclobutanecarboxamide]
3 | 0.002 | 0.02 | 0.01 | 0.018 | 1.79 | > 10 | 6.74 | 0.013 | – | 0.007 | CO[C@@H](C)c1ncc(N2CCN(C)CC2)cc1-c1c2c3cc(c(F)cc3n1CC(F)(F)F)-c1csc(n1)C[C@H](NC(=O)[C@H](C(C)C)N(C)C(=O)N1CC(C#CC(F)(F)F)C1)C(=O)N1CCC[C@H](N1)C(=O)OCC(C)(C)C2 (atropisomer, axis not shown; (M)) [Example 2, N-[(1S)-1-[[(7S,13S)-24-fluoro-(20M)-20-[2-[(1S)-1-methoxyethyl]-5-(4-methylpiperazin-1-yl)-3-pyridyl]-17,17-dimethyl-8,14-dioxo-21-(2,2,2-trifluoroethyl)-15-oxa-4-thia-9,21,27,28-tetrazapentacyclo[17.5.2.1^2,5.1^9,13.0^22,26]octacosa-1(25),2,5(28),19,22(26),23-hexaen-7-yl]carbamoyl]-2-methyl-propyl]-N-methyl-3-(3,3,3-trifluoroprop-1-ynyl)azetidine-1-carboxamide]
4 | 0.023 | > 5 | > 5 | 0.335 | > 10 | > 10 | > 10 | 1.1 | – | 0.099 | CO[C@@H](C)c1ncc(N2CCN(CC(F)(F)F)CC2)cc1-c1c2c3cc(c(F)cc3n1CC(F)(F)F)-c1csc(n1)C[C@H](NC(=O)[C@H](C(C)C)N(C)C(=O)[C@H]1C[C@@H](C#CC(F)(F)F)C1)C(=O)N1CCC[C@H](N1)C(=O)OCC(C)(C)C2 (atropisomer, axis not shown; (M)) [Example 7, cis-N-[(1S)-1-[[(7S,13S)-24-fluoro-(20M)-20-[2-[(1S)-1-methoxyethyl]-5-[4-(2,2,2-trifluoroethyl)piperazin-1-yl]-3-pyridyl]-17,17-dimethyl-8,14-dioxo-21-(2,2,2-trifluoroethyl)-15-oxa-4-thia-9,21,27,28-tetrazapentacyclo[17.5.2.1^2,5.1^9,13.0^22,26]octacosa-1(25),2,5(28),19,22(26),23-hexaen-7-yl]carbamoyl]-2-methyl-propyl]-N-methyl-3-(3,3,3-trifluoroprop-1-ynyl)cyclobutanecarboxamide]
5 | < 0.001 | 2.84 | 4.73 | 0.029 | 0.021 | > 10 | > 10 | 0.002 | – | 0.008 | CCn1c(-c2cc(N3CCN(C)CC3)cnc2[C@H](C)OC)c2c3cc(c(F)cc31)-c1csc(n1)C[C@H](NC(=O)[C@H](C(C)C)N(C)C(=O)[C@H]1C[C@@H](C#CC(F)(F)F)C1)C(=O)N1CCC[C@H](N1)C(=O)OCC(C)(C)C2 (atropisomer, axis not shown; (M)) [Example 6, cis-N-[(1S)-1-[[(7S,13S)-21-ethyl-24-fluoro-(20M)-20-[2-[(1S)-1-methoxyethyl]-5-(4-methylpiperazin-1-yl)-3-pyridyl]-17,17-dimethyl-8,14-dioxo-15-oxa-4-thia-9,21,27,28-tetrazapentacyclo[17.5.2.1^2,5.1^9,13.0^22,26]octacosa-1(25),2,5(28),19,22(26),23-hexaen-7-yl]carbamoyl]-2-methyl-propyl]-N-methyl-3-(3,3,3-trifluoroprop-1-ynyl)cyclobutanecarboxamide]
